Test systems include HOP-18 NSCLC; DLD-1 colon; LXFL 529 NSCLC; RXF-631 renal; SNB-78 CNS; DMS 273 small cell lung; KM20L2 colon; MDA-N; T-47D breast.
Holding throughout (assay): NCI tumour cell line growth inhibition, 48 h

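Method: 48-hour compound exposure of cells in 96-well plates, five concentrations, linear interpolation of endpoints. TGI marks complete inhibition of growth.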

For the molecule `CCCCCCCCCCCCCCCc1nc(SCC(=O)O)n[nH]1`, the TGI in the experiment with HOP-18 NSCLC was more than 100 µM; in the experiment on DLD-1 colon, 56.1 µM; in the experiment with LXFL 529 NSCLC, 66.4 µM; with RXF-631 renal, more than 100 µM; with SNB-78 CNS, more than 100 µM.

Regarding `C[C@]12CC[C@H](O)CC1CCC[C@@H]2O` (stereo partly drawn), the TGI in the experiment with DLD-1 colon, in the experiment with LXFL 529 NSCLC, with RXF-631 renal, with DMS 273 small cell lung and with SNB-78 CNS was more than 100 µM each time.

Consider `Nc1c(-c2ccc(-c3c(N)[n+]([O-])c4ccccc4[n+]3[O-])cc2)[n+]([O-])c2ccccc2[n+]1[O-]`, for which the TGI in the experiment with HOP-18 NSCLC turned out to be 20.2 µM; in the experiment with DLD-1 colon it was 27.2 µM; in the experiment with LXFL 529 NSCLC it was 35.4 µM; in the experiment with DMS 273 small cell lung, 31.7 µM; with SNB-78 CNS it was 62.3 µM.

For the molecule `CC(=O)NC1C(OCc2ccccc2)OC(COC(=O)CCCCCCCCCCNC(=O)CCNc2ccc([N+](=O)[O-])c3[nH]c4ccc(O)cc4c(=O)c23)C(O)C1OC(C)C(=O)N[C@H](C(=O)N[C@H](CCC(=O)O)C(N)=O)C(C)C` (stereo partly drawn), the TGI in the experiment on HOP-18 NSCLC, in the experiment on DLD-1 colon, in the experiment with LXFL 529 NSCLC, in the experiment with RXF-631 renal, with DMS 273 small cell lung and in the experiment with SNB-78 CNS was more than 100 µM in each case. Also, the TGI in the experiment with KM20L2 colon is more than 100 µM.

Turning to `O=C(NCCOCCO)c1ccc(O)cc1`, the TGI with HOP-18 NSCLC, in the experiment with DLD-1 colon, in the experiment on LXFL 529 NSCLC, in the experiment on DMS 273 small cell lung and with KM20L2 colon was more than 100 µM in each case.

In the case of `O=C1OC(/C=C/c2ccccc2)C(=O)C1=O` (stereo not drawn), the TGI in the experiment with HOP-18 NSCLC, in the experiment on DLD-1 colon, in the experiment with LXFL 529 NSCLC, with DMS 273 small cell lung and with KM20L2 colon was more than 100 µM each time.

As to `CC(=O)c1ccc(-c2ccc(C(C)=O)s2)s1`, the TGI in the experiment on HOP-18 NSCLC, in the experiment with DLD-1 colon, with LXFL 529 NSCLC, in the experiment with RXF-631 renal, in the experiment with DMS 273 small cell lung and in the experiment with SNB-78 CNS was more than 100 µM in each case. In the experiment on KM20L2 colon, the TGI is more than 100 µM.

With `O=C1C2Cc3ccccc3CN2C(=O)N1CCN1CCOCC1` (stereo not drawn), the TGI in the experiment on DLD-1 colon, in the experiment on LXFL 529 NSCLC, in the experiment on RXF-631 renal, with DMS 273 small cell lung and with KM20L2 colon was more than 100 µM in each case.

For the molecule `c1ccc2c(c1)-c1nc3ccccc3cc1C2N1CCOCC1` (stereo not drawn), the TGI in the experiment with MDA-N and with T-47D breast was more than 100 µM in each case.

Regarding `COc1ccc2c(c1)[n+](=O)c(C(=O)C/C(=N\NC(=O)C[N+](C)(C)C)C(=O)Nc1cc(Cl)ccc1Cl)c(C)n2O`, the TGI in the experiment with HOP-18 NSCLC, with DLD-1 colon, in the experiment on LXFL 529 NSCLC, in the experiment with DMS 273 small cell lung and in the experiment on SNB-78 CNS was more than 100 µM in each case.

Consider `NCCCSCC(=O)O`, for which the TGI in the experiment with LXFL 529 NSCLC, in the experiment on DMS 273 small cell lung, in the experiment with SNB-78 CNS and in the experiment on KM20L2 colon was more than 100 µM in each case.

Turning to `Cn1c(=O)ccc2cc(C(=O)c3ccccc3)ccc21`, the TGI in the experiment on HOP-18 NSCLC, in the experiment with DLD-1 colon, with LXFL 529 NSCLC, with RXF-631 renal, in the experiment with DMS 273 small cell lung and in the experiment on KM20L2 colon was more than 100 µM in each case.

With `CC(=O)SC(C[N+](=O)[O-])c1ccccc1` (stereo not drawn), the TGI in the experiment on MDA-N was 9.77 µM; in the experiment with T-47D breast, more than 71.3 µM.

For `Cn1c(=O)c2nc3sc4ccccc4c(=N)n3c2n(C)c1=O`, the TGI with HOP-18 NSCLC, in the experiment on DLD-1 colon, in the experiment with LXFL 529 NSCLC, with RXF-631 renal, in the experiment with DMS 273 small cell lung and with SNB-78 CNS was more than 100 µM in each case.

As for `COc1ccc(/C=C2\CCC(CN(C)C)C2=O)cc1` (stereo not drawn), the TGI stood at 19.9 µM in the experiment with HOP-18 NSCLC; 12.5 µM in the experiment with DLD-1 colon; 4.17 µM in the experiment on LXFL 529 NSCLC; 9.09 µM in the experiment on MDA-N; 51.9 µM with SNB-78 CNS; 36.8 µM with KM20L2 colon.

As to `CN(CC(=O)O)Cc1c[nH]c2ccccc12`, in the experiment on MDA-N, the TGI was more than 100 µM.

As for `CC(=O)Oc1cc(OC(C)=O)c(OC(C)=O)c2c1CC1C(=O)C3(CCc4ccccc43)C(=O)C1C2` (stereo not drawn), the TGI is 43.6 µM with HOP-18 NSCLC; 35.2 µM with DLD-1 colon; 28 µM in the experiment with LXFL 529 NSCLC; 34.9 µM in the experiment with DMS 273 small cell lung; 58.2 µM with SNB-78 CNS; 48.3 µM in the experiment with KM20L2 colon.

`COc1cccc(/C=N/[N-]C(N)=O)c1[O-].[Cu+2].c1ccncc1`: the TGI in the experiment on KM20L2 colon was more than 100 µM.

In the case of `COC(=O)C1=CCS(=O)(=O)C1`, the TGI with HOP-18 NSCLC, in the experiment on DLD-1 colon, in the experiment on LXFL 529 NSCLC, with RXF-631 renal, with SNB-78 CNS and in the experiment with KM20L2 colon was more than 100 µM throughout.

For `OC1/C(=C/c2ccccc2)CNC/C1=C\c1ccccc1` (stereo not drawn), the TGI in the experiment with HOP-18 NSCLC, in the experiment on DLD-1 colon, in the experiment on LXFL 529 NSCLC, with DMS 273 small cell lung, with SNB-78 CNS and in the experiment on KM20L2 colon was more than 100 µM in each case.

As to `O=c1cc(/C=C/c2ccccc2)c2ccc(O/C(=C\c3ccccc3)c3nc4ccccc4c(=O)o3)cc2o1`, the TGI in the experiment with DLD-1 colon was more than 100 µM; in the experiment with LXFL 529 NSCLC it was 63.9 µM; in the experiment with RXF-631 renal, more than 100 µM; in the experiment with DMS 273 small cell lung, more than 100 µM; in the experiment on SNB-78 CNS, 70.8 µM; in the experiment with KM20L2 colon, more than 100 µM.

On to `OC1OC2COC(c3ccccc3)OC2C(O)C1O` (stereo not drawn), for which the TGI in the experiment with HOP-18 NSCLC, in the experiment with DLD-1 colon, in the experiment on LXFL 529 NSCLC, in the experiment with DMS 273 small cell lung, in the experiment on SNB-78 CNS and in the experiment on KM20L2 colon was more than 100 µM in each case.

As for `CC12CCC(C)(c3cc(O)c(O)cc31)c1cc(O)c(O)cc12`, the TGI came out at 45.7 µM with DLD-1 colon; 22.2 µM in the experiment with LXFL 529 NSCLC; 55.6 µM in the experiment on RXF-631 renal; 37.5 µM with DMS 273 small cell lung; 39.2 µM with SNB-78 CNS; 39.2 µM with KM20L2 colon.
